This experiment addresses T1, human CCR6 (Homo sapiens, UniProt P51684).
T1 construct: expressed in transfected cells; host or cells: HEK-293
T1 sequence (P51684 1-374): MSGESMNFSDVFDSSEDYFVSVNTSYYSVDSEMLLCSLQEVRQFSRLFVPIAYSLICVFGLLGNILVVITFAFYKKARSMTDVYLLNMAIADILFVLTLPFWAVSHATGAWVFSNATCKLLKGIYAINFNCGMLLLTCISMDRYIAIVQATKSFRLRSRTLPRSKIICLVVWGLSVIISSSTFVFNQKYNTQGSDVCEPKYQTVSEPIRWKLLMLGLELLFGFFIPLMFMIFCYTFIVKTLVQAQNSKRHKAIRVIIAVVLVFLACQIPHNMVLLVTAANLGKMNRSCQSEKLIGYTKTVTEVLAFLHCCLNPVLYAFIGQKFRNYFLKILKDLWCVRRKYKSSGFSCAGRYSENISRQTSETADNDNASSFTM
Kind of experiment: FLIPR assay (calcium flux, inhibition of CCL20 agonist response). The note with it: HEK-293 cells expressing human CCR6; agonist CCL20 10 nM; 30 min preincubation; mean values if determined several times. The format is cell-based. As for the experimental part:
FLIPR assay: The bioactivity of compounds is tested in a fluorometric imaging plate reader (FLIPR: Molecular Devices) using engineered HEK-293 cells expressing the human CCR6 (GenBank: AY242126). Frozen cells are plated on Poly-L-Lysine precoated 384-well plates 2 days prior to bioassay in DMEM medium supplemented with 10% FCS and 1% Penicillin-Streptomycin. At the day of bioassay, cell supernatant is discarded and cells are dye loaded for 30 minutes at room temperature in the dark with Fluo-8-AM (Focus Biomolecules) in Hanks Balanced Salt Solution (Gibco), buffered with 20 mM Hepes at pH 6.75 and supplemented with 0.05% BSA. This buffer, but lacking the dye, is also used for washing and compound dilution steps (assay buffer). Cells are washed free of excess dye with a wash-station (Biotek), leaving 40 microliter of assay buffer at the end. Cells were incubated for 15 minutes at room temperature in the dark, before adding compounds. Stock solutions of test compounds are made up at a concentration of 10 mM in DMSO, and serially diluted first in DMSO and then transferred in assay buffer to concentrations required for inhibition dose response curves. After a 45 minute incubation period in assay buffer at room temperature, 10 microliters of each compound dilution are transferred from a compound plate to the plate containing the recombinant cells in the FLIPR instrument according to the manufacturer's instructions. After cells and compounds were preincubated for 30 minutes at room temperature in the dark, 10 microliter agonist CCL20 (Peprotech) at a final concentration of 10 nM is added, again using the FLIPR instrument. Changes in fluorescence are monitored before and after addition of the test compounds and agonist. Emission peak values above base level after CCL20 addition are exported after base line subtraction. The calculated IC50 values may fluctuate depending on the daily assay performance. Fluctuations of this kind are known to those skilled in the art. In the case where IC50 values have been determined several times for the same compound, mean values are given.
On the technique in general: Calcium assays in cells follow changes in intracellular calcium, usually with a dye or a luminescent sensor.

As usually defined, the IC50 is the point on the concentration scale where inhibition reaches its midpoint. Take `CN1CC(C)([C@](O)(c2ccc(CC(F)(F)F)cc2)c2cncc(-c3noc([C@H]4CC[C@H](O)CC4)n3)c2)C1` [Example 1, trans-4-[3-(5-{(R)-(1,3-Dimethyl-azetidin-3-yl)-hydroxy-[4-(2,2,2-trifluoro-ethyl)-phenyl]-methyl}-pyridin-3-yl)-[1,2,4]oxadiazol-5-yl]-cyclohexanol]: the IC50 was found to be 83 nM. On to `CN1CC(C)([C@](O)(c2ccc(CC(F)(F)F)cc2)c2cncc(-c3nc(C45CC(CO)(C4)C5)no3)c2)C1` [Example 9, (R)-(1,3-Dimethyl-azetidin-3-yl)-{5-[3-(3-hydroxymethyl-bicyclo[1.1.1]pent-1-yl)-[1,2,4]oxadiazol-5-yl]-pyridin-3-yl}-[4-(2,2,2-trifluoro-ethyl)-phenyl]-methanol], for which the IC50 is 146 nM.

Consider `CC(=O)NC12CC(c3nc(-c4cncc([C@@](O)(c5ccc(C(C)C)cc5)C5(C)CN(C)C5)c4)no3)(C1)C2` [Example 3, N-[3-(3-{5-[(R)-(1,3-Dimethyl-azetidin-3-yl)-hydroxy-(4-isopropyl-phenyl)-methyl]-pyridin-3-yl}-[1,2,4]oxadiazol-5-yl)-bicyclo[1.1.1]pent-1-yl]-acetamide], for which the IC50 was 55.7 nM. As to `CC(C)c1ccc([C@](O)(c2cncc(-c3noc(C4CCC(C(N)=O)CC4)n3)c2)C2(C)CN(C)C2)cc1` (stereo partly drawn) [Example 14, 4-(3-{5-[(R)-(1,3-Dimethyl-azetidin-3-yl)-hydroxy-(4-isopropyl-phenyl)-methyl]-pyridin-3-yl}-[1,2,4]oxadiazol-5-yl)-cyclohexanecarboxylic acid amide], the IC50 was found to be 46.3 nM. As for `CC(C)c1ccc([C@](O)(c2cncc(-c3noc(C45CCC(O)(CC4)CC5)n3)c2)C2(C)CN(C)C2)cc1` [Example 4, 4-(3-{5-[(R)-(1,3-Dimethyl-azetidin-3-yl)-hydroxy-(4-isopropyl-phenyl)-methyl]-pyridin-3-yl}-[1,2,4]oxadiazol-5-yl)-bicyclo[2.2.2]octan-1-ol], the IC50 worked out at 23.9 nM. Next, `CCC(=O)N[C@H]1CC[C@H](c2nc(-c3cncc([C@@](O)(c4ccc(C(C)C)cc4)C4(C)CN(C)C4)c3)no2)CC1` [Example 7, trans-N-[4-(3-{5-[(R)-(1,3-Dimethyl-azetidin-3-yl)-hydroxy-(4-isopropyl-phenyl)-methyl]-pyridin-3-yl}-[1,2,4]oxadiazol-5-yl)-cyclohexyl]-propionamide]: 78.8 nM; `CC(C)c1ccc([C@](O)(c2cncc(C#C[C@H]3CC[C@H](O)CC3)c2)C2(C)CN(C)C2)cc1` [Example 11, trans-4-{5-[(R)-(1,3-Dimethyl-azetidin-3-yl)-hydroxy-(4-isopropyl-phenyl)-methyl]-pyridin-3-ylethynyl}-cyclohexanol]: 28.7 nM.

Regarding `CN1CC(C)([C@](O)(c2ccc(CC(F)(F)F)cc2)c2cncc(-c3nc(C(C)(C)CO)no3)c2)C1` [Example 5, 2-[5-(5-{(R)-(1,3-Dimethyl-azetidin-3-yl)-hydroxy-[4-(2,2,2-trifluoro-ethyl)-phenyl]-methyl}-pyridin-3-yl)-[1,2,4]oxadiazol-3-yl]-2-methyl-propan-1-ol], the IC50 came to 144 nM.

For `CC(=O)NC1CCC(c2nc(-c3cncc([C@@](O)(c4ccc(C(C)C)cc4)C4(C)CN(C)C4)c3)no2)CC1` (single isomer, unassigned) [Example 8, cis- or trans-N-[4-(3-{5-[(R)-(1,3-Dimethyl-azetidin-3-yl)-hydroxy-(4-isopropyl-phenyl)-methyl]-pyridin-3-yl}-[1,2,4]oxadiazol-5-yl)-cyclohexyl]-acetamide], the IC50 is 52.2 nM.

For the molecule `CN1CC(C)([C@](O)(c2ccc(CC(F)(F)F)cc2)c2cncc(-c3noc(C45CCC(C(N)=O)(CC4)CC5)n3)c2)C1` [Example 15, 4-[3-(5-{(R)-(1,3-Dimethyl-azetidin-3-yl)-hydroxy-[4-(2,2,2-trifluoro-ethyl)-phenyl]-methyl}-pyridin-3-yl)-[1,2,4]oxadiazol-5-yl]-bicyclo[2.2.2]octane-1-carboxylic acid amide], the IC50 stood at 65.3 nM.

`CC(=O)N1CC2(CC(c3nc(-c4cncc([C@@](O)(c5ccc(C(C)C)cc5)C5(C)CN(C)C5)c4)no3)C2)C1` [Example 6, 1-[6-(3-{5-[(R)-(1,3-Dimethyl-azetidin-3-yl)-hydroxy-(4-isopropyl-phenyl)-methyl]-pyridin-3-yl}-[1,2,4]oxadiazol-5-yl)-2-aza-spiro[3.3]hept-2-yl]-ethanone]: the IC50 is 111 nM.

For the molecule `CN1CC(C)([C@](O)(c2ccc(CC(F)(F)F)cc2)c2cncc(-c3noc(C45CC(CO)(C4)C5)n3)c2)C1` [Example 2, (R)-(1,3-Dimethyl-azetidin-3-yl)-{5-[5-(3-hydroxymethyl-bicyclo[1.1.1]pent-1-yl)-[1,2,4]oxadiazol-3-yl]-pyridin-3-yl}-[4-(2,2,2-trifluoro-ethyl)-phenyl]-methanol], the IC50 turned out to be 140 nM. For `CC(C)c1ccc([C@](O)(c2cncc(-c3noc(C45CCC(C(N)=O)(CC4)CC5)n3)c2)C2(C)CN(C)C2)cc1` [Example 13, 4-(3-{5-[(R)-(1,3-Dimethyl-azetidin-3-yl)-hydroxy-(4-isopropyl-phenyl)-methyl]-pyridin-3-yl}-[1,2,4]oxadiazol-5-yl)-bicyclo[2.2.2]octane-1-carboxylic acid amide], the IC50 is 37.5 nM. In the case of `CC(C)c1ccc([C@](O)(c2cncc(C#C[C@H]3CC[C@@H](O)CC3)c2)C2(C)CN(C)C2)cc1` [Example 12, cis-4-{5-[(R)-(1,3-Dimethyl-azetidin-3-yl)-hydroxy-(4-isopropyl-phenyl)-methyl]-pyridin-3-ylethynyl}-cyclohexanol], the IC50 came to 25.4 nM. In the case of `CC(=O)N[C@H]1CC[C@H](c2nc(-c3cncc([C@@](O)(c4ccc(CC(F)(F)F)cc4)C4(C)CN(C)C4)c3)no2)CC1` [Example 16, N-{4-[3-(5-{(R)-(1,3-Dimethyl-azetidin-3-yl)-hydroxy-[4-(2,2,2-trifluoro-ethyl)-phenyl]-methyl}-pyridin-3-yl)-[1,2,4]oxadiazol-5-yl]-trans-cyclohexyl}-acetamide] it was 226 nM.

For the molecule `CC(C)c1ccc([C@](O)(c2cncc(C#CC(C)(O)c3ccncn3)c2)C2(C)CN(C)C2)cc1` (single isomer, unassigned) [Example 10, (R)- or (S)-4-{5-[(R)-(1,3-Dimethyl-azetidin-3-yl)-hydroxy-(4-isopropyl-phenyl)-methyl]-pyridin-3-yl}-2-pyrimidin-4-yl-but-3-yn-2-ol], the IC50 worked out at 71.5 nM.

(Values after US20250011313A1, “CCR6 RECEPTOR MODULATORS” (Idorsia Pharmaceuticals Ltd, priority 2021, published 2025).)
